Patent US20250340591A1, “COMPOSITION FOR PREVENTING OR TREATING INFLAMMATORY BOWEL DISEASE CONTAINING NOVEL COMPOUND” (ANYGEN CO., LTD., priority 2021, published 2025)

Key:
HT-29 cells [1] = assay: tight junction factor (ZO-1, occludin) expression in HT-29 cells, qPCR and Western blot; format: cell-based; conditions: HT-29, different concentrations, vs vehicle
Procedure: It is known that GPR39 is involved in the protection of the gastrointestinal tract (Phil. Trans. R. Soc. B., 2016, 371:20150420). Therefore, in order to confirm the effect of HKFY-34 on the gastrointestinal tract protective function by GPR39, the promoting activity of HKFY-34 on tight junction was evaluated using HT-29 cells, which are important for intestinal tissue formation.
Specifically, the HT-29 cells were treated with HKFY-34 at different concentrations, and then the expression levels of mRNA (FIG. 77) and protein (FIG. 78) of ZO-1 and occludin, which are important factors of tight junction in intestinal barrier function, were confirmed through quantitative RT-PCR (qPCR) and Western blot.

[2] = system: ulcerative colitis-induced wild type mice; assay: DSS-induced ulcerative colitis in wild type littermate mice; format: in vivo
Procedure: In order to confirm the effect of HKFY-34 in an inflammatory bowel disease model using GPR39 as a target substance, a disease model of ulcerative colitis was prepared using GPR39 deficient mice (GPR39 knock out (KO), Gpr39^−/−). At this time, wild type mice born from a litter were set as a control group for each treated group of GPR39 deficient mice.
Specifically, an animal model of ulcerative colitis was prepared by feeding GPR39 deficient mice (Lexicon pharmaceuticals) and wild type mice with water containing 3% DSS in the same manner as in Experimental Example 7. GPR39 KO mice fed with only DSS (vehicle+3% DSS) were set as a negative control group, and GPR39 KO mice administered with HKFY-34 (10 mg/kg) (HKFY-34 10 mg/kg+3% DSS) were set as a test group. Intraperitoneal administration was performed once a day for 5 days.

AMPK = assay: phosphorylation of AMPK in HT-29 cells, Western blot; format: cell-based
Text: It is known that tight junctions are mediated by a signaling mechanism due to phosphorylation of AMPK protein. Therefore, in order to confirm whether AMPK is involved in the increase in tight junctions by HKFY-34, the expression of p-AMPK in the cells was confirmed using HT-29 cells (FIGS. 79 and 80).
In addition, when treated with HKFY-34 after pretreatment with an AMPK inhibitor (STO-609), it was confirmed that the expression level of p-AMPK, which was increased due to HKFY-34 treatment, was decreased (FIG. 80).

HT-29 cells [3] = assay: cell proliferation of HT-29 intestinal epithelial cells (Cellvia kit, BrdU kit); format: cell-based; conditions: different concentrations, 24, 48 and 72 hours, FIG. 75
Procedure: It is known from studies using GPR39 deficient mice that GPR39 is involved in the growth and differentiation of intestinal tissue cells (Phil. Trans. R. Soc. B., 2016, 371:20150420). Therefore, in order to confirm the effect of HKFY-34 on the growth of intestinal tissue cells, the degree of cell proliferation by HKFY-34 was measured using HT-29 cells (Korea Cell Line Bank), which are intestinal epithelial cells.
Specifically, HT-29 cells were cultured in a 96 well plate and then treated with HKFY-34 at different concentrations for 24, 48, and 72 hours. The cell proliferation of the cultured cells was measured using a Cellvia kit (AB frontier) and a BrdU cell proliferation kit (abcam).

[4] = target: T1, TRH (thyrotropin releasing hormone) receptor (TRHR) (Homo sapiens, UniProt P34981); assay: luciferase assay system, ghrelin receptor family selectivity; format: cell-based; conditions: compared with intrinsic ligand, FIG. 74
T1 construct: expressed in transfected cells
T1 sequence (P34981 1-398): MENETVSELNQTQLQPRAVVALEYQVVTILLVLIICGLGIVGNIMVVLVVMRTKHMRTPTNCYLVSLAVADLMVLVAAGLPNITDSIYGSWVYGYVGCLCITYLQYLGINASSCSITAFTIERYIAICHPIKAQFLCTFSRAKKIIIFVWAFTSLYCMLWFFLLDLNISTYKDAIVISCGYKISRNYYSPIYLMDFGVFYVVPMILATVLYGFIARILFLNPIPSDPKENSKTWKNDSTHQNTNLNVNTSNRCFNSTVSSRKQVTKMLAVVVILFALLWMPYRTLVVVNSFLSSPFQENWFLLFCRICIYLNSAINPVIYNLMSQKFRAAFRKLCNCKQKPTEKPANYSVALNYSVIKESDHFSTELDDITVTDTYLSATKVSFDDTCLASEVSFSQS
Procedure: (§1) In addition, through the activity test of the HKFY derivatives for similar receptors to GPR39, ghrelin receptor family (ghrelin receptor (GHSR), motilin receptor (MTLR), neurotensin receptor (NTSR1 & NTSR2), neuromedin U receptor (NMU1 & NMU2), TRH (thyrotropin releasing hormone) receptor (TRHR)), the selectivity and specificity for the GPR39 receptor were confirmed.
(§2) Specifically, the degree of activity between the intrinsic ligand and HKFY-34 for each receptor was analyzed using a luciferase assay system (FIG. 74).

motilin receptor (MTLR) = target: T2, motilin receptor (MTLR) (Homo sapiens, UniProt O43193); assay: as above; format: cell-based; conditions: compared with intrinsic ligand, FIG. 74
T2 construct: expressed in transfected cells
Procedure: as §1, §2

[5] = target: T3, neuromedin U receptor (NMU1) (Homo sapiens, UniProt Q9HB89); assay: as above; format: cell-based; conditions: compared with intrinsic ligand, FIG. 74
T3 construct: expressed in transfected cells
T3 sequence (Q9HB89 1-426): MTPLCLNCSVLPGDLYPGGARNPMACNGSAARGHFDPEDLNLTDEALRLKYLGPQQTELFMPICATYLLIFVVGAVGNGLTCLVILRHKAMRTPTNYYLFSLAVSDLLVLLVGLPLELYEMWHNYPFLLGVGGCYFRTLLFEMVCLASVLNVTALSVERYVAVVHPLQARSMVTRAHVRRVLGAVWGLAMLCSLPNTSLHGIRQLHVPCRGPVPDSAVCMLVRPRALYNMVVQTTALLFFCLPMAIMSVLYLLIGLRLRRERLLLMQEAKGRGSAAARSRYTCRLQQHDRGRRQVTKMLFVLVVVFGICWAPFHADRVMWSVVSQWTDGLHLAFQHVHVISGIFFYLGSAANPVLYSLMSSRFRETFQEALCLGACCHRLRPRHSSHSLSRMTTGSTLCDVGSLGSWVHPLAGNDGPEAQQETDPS
Procedure: as §1, §2

ghrelin receptor (GHSR) = target: T4, ghrelin receptor (GHSR) (Homo sapiens, UniProt Q92847); assay: as above; format: cell-based; conditions: compared with intrinsic ligand, FIG. 74
T4 construct: expressed in transfected cells
Procedure: as §1, §2

[6] = target: T5, neurotensin receptor (NTSR2) (Homo sapiens, UniProt O95665); assay: as above; format: cell-based; conditions: compared with intrinsic ligand, FIG. 74
T5 construct: expressed in transfected cells
Procedure: as §1, §2

T4 sequence (Q92847 whole entry, species assumed): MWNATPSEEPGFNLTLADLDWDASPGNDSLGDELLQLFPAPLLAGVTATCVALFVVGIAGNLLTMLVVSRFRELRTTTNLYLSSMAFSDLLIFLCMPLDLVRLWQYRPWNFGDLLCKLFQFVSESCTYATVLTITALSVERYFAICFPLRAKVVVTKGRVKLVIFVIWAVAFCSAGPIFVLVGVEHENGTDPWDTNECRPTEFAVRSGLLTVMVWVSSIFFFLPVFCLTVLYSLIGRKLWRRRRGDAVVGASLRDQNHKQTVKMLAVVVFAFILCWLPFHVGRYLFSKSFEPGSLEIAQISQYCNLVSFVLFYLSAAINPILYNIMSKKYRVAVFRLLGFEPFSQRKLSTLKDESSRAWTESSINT
T2 sequence (O43193 whole entry, species assumed): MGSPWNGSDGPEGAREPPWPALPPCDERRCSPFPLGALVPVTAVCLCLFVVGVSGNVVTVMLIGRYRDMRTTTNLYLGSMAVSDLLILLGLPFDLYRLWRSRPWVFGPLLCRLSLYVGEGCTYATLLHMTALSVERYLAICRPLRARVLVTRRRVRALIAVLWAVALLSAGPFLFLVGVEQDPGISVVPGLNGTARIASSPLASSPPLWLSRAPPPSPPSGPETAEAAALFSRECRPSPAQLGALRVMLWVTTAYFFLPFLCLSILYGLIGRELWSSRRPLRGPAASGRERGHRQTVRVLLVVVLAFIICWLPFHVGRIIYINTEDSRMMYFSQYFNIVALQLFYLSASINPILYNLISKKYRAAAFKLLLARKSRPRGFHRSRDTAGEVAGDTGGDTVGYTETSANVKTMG
T5 sequence (O95665 whole entry, species assumed): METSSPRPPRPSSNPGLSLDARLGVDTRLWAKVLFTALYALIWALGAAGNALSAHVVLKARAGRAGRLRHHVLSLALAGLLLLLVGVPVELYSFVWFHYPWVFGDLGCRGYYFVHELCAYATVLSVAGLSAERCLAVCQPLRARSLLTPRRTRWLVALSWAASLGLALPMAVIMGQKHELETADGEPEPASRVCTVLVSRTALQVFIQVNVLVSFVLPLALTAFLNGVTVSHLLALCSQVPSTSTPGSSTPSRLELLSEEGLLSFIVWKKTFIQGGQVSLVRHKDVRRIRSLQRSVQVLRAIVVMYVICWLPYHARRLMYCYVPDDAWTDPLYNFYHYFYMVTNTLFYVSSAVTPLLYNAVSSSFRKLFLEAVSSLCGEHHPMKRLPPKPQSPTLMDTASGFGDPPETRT

With CCCCCCCC(=O)NCCCC[C@H](NC(=O)[C@@H](N)Cc1cn(C(c2ccccc2)c2ccccc2)cn1)C(=O)N[C@H](Cc1ccc(C)cc1)C(=O)N[C@@H](Cc1ccc(O)cc1)C(=O)O [HKFY-34, ((R)-2-((S)-2-((S)-2-amino-3-(1-benzhydryl-1H-imidazol-4-yl)propanamido)-6-octanamidohexanamido)-3-(p-tolyl)propanoyl)-L-tyrosine] the “protein expression level of ZO-1” value (HT-29 cells [1]; Western blot, FIG. 78) was “significantly increased by HKFY-34 in a dose-dependent manner”, the “protein expression level of occludin” value (HT-29 cells [1]; Western blot, FIG. 78) was “significantly increased by HKFY-34 in a dose-dependent manner” and the “mRNA expression level of ZO-1” value (HT-29 cells [1]; qPCR, FIG. 77) was “significantly increased by HKFY-34 in a dose-dependent manner”. For the same compound, the “mRNA expression level of occludin” value (HT-29 cells [1]; qPCR, FIG. 77) was “significantly increased by HKFY-34 in a dose-dependent manner”, the “decrease in colon length” value ([2]; 10 mg/kg intraperitoneal for 5 days, FIG. 92) was “inhibited” and the “damage due to inflammation of colon tissue (H&E staining)” value ([2]; 10 mg/kg intraperitoneal for 5 days, FIG. 95) was “reduced”. For the same compound, the body weight loss ([2]; 10 mg/kg intraperitoneal once a day for 5 days, 3% DSS, FIG. 91) was “inhibited”, the “expression of p-AMPK protein” value (AMPK; HT-29, different concentrations, vs vehicle, FIG. 79) was “increased by HKFY-34 in a dose-dependent manner” and the “expression level of p-AMPK after pretreatment with AMPK inhibitor” value (AMPK; HT-29, pretreatment with STO-609 1 μM, vs HKFY-34 treatment, FIG. 80) was “decreased”. For the same compound, the “proliferation of HT-29 cells” value (HT-29 cells [3]) was “increased by HKFY-34 in a dose-dependent manner”, the “activity for TRHR” value [4] was “very low” and the “activity for MTLR” value (motilin receptor (MTLR)) was “very low”. The “activity for NMU1” value [5] was “very low”, the “activity for GHSR” value (ghrelin receptor (GHSR)) was “very low” and the “activity for NTSR2” value [6] was “very low”.
